“And” between values parts separate entries of the source, which are not always exact repeats. Equal entries are not always repeated.
Assays:
[1] = system: brain endothelial cells and Caco-2 cell monolayers; parameters: method as in PMID 23089576; conditions: cited from earlier work
[2] = system: in vitro BBB model (bEnd.3 cells); test: Penetration across the in vitro BBB model (bEnd.3 monolayer on Transwell inserts, HPLC); type: in vitro ADME, mouse; conditions: bEnd.3 Transwell, n = 6
Protocol: The lyophilised powders of synthesised molecules (G0K-FP and G1K-FP) as well as free drug (FP) were dissolved in the FBS-free; phenol-free culture media in a concentration of 200 µM. Quantitative analysis of drug and drug-attached dendrons penetration was conducted using HPLC (Agilent technology/1260 infinity, Stockport, UK). The analysis was carried out using a hydrophobic C18 column (150 × 4.6 mm) and a UV-detection wavelength 248 nm which is the λmax of FP [5]. The gradient of eluent of the mobile phase was run from 75:25 to 25:75 of water: acetonitrile over 20 min. The standard curve for each molecule was obtained to calculate the percentage of transported amount across the in vitro BBB model.
To establish an in vitro BBB model, bEnd.3 cells were cultured on microporous membrane (0.4 µm pore size) of 12-Transwell inserts (Fisher Scientific) with complete culture media. TEER values between apical and basolaterl chambers was measured using an Evom voltometer (Sarasota, FL, USA) to determine the day of maximum values indicating tight junction formation. The measurements were taken up to day 8 of culturing and compared to the results of HUVECs which were also cultured into Transwell-clear inserts. Cell-free Transwell inserts were included to exclude the resistance related to the inserts membrane alone. The apical chambers of bEnd.3 culture were then treated with 200 µM of each samples. After 1 and 4 h incubation, 200 µL samples were taken from the basolateral chambers and percentage of permeability calculated according to the following:PMaterial % = ((CAcceptor × VAcceptor)/(CDonor × VDonor)) × 100%(1) where PMaterial %: the percentage of permeability of the tested material, CAcceptor: the concentration of the tested material in basal chamber, VAcceptor: the volume of the culture media in the basal chamber, CDonor: the initial concentration of the tested material in the apical chamber, VDonor: the volume of the culture media in the apical chamber.

γ-secretase enzyme = test: Quantification of γ-secretase enzyme in C6 glial cells (sandwich ELISA); type: cell-based; conditions: 200 µM, 4 h incubation, untreated control 28.43 ± 8.32 pg/mL, n = 6
Protocol: The C6 glial cells seeded in a density of 5 × 10^4 cells per cm^2 and incubated at 37 °C and 5% CO2. The investigation is based on sandwich enzyme-linked immune-sorbent assay (ELISA) technology using γ-secretase enzyme kit (Abbexa Ltd., Cambridge, UK). C6 glial cells were cultured in 24-well plates at density 5 × 10^4 cells per cm^2, and at confluence, they were treated with 200 μM FP, […]-FP, or […]-FP dissolved in […] media. Wells containing untreated C6 cells were also included as a control. After 4 h incubation, cells were washed with PBS and lysed via freezing to -20 °C and thawing to room temperature 3 times. […] The collected samples were used immediately to avoid any degradation and denaturalisation. The standard curve of γ-secretase standards (supplied with kit) was constructed and the concentration of γ-secretase was calculated for each sample.

[3] = parameters: method as in PMID 7736686; conditions: cited from earlier work
bEnd.3 cells monolayer = system: bEnd.3 cells monolayer; parameters: method as in PMID 24280275; conditions: cited from earlier work
γ-secretase = system: γ-secretase; parameters: method as in PMID 20009055, PMID 18450517; conditions: at the target tissue site; cited from earlier work
[4] = parameters: method as in PMID 7736686; conditions: cited from earlier work; remark: listed apart in the source
[5] = 1 h after applying 200 µM to apical chamber
[6] = 4 h after applying 200 µM to apical chamber

paclitaxel
fold greater permeability than paclitaxel alone [1]: 12 fold

CC(C(=O)NCCCC[C@H](NC(=O)C(C)c1ccc(-c2ccccc2)c(F)c1)C(=O)NCCCC[C@H](NC(=O)[C@H](CCCCNC(=O)C(C)c1ccc(-c2ccccc2)c(F)c1)NC(=O)C(C)c1ccc(-c2ccccc2)c(F)c1)C(=O)N[C@@H](Cc1ccccc1)C(=O)O)c1ccc(-c2ccccc2)c(F)c1 (stereo partly drawn) [G1K-FP, Generation 1 lysine dendron-4Flurbiprofen]
% Of Permeability (Mean ± SD) [2, 5]: 4.3% and 4.32 ± 1.05%
% Of Permeability (Mean ± SD) [2, 6]: 14.8% and 14.79 ± 2.06%

CC(C(=O)O)c1ccc(-c2ccccc2)c(F)c1 (stereo not drawn) [FP, Flurbiprofen]
γ-Secretase Enzyme Concentration (Mean ± SD) (γ-secretase enzyme): 8.2 pg/mL and 8.20 ± 3.80 pg/mL
water solubility [3]: poorly water-soluble
diffusion through bEnd.3 cells monolayer (bEnd.3 cells monolayer): approximately 10%
% Of Permeability (Mean ± SD) [2, 5]: 2.71 ± 1.52%
% Of Permeability (Mean ± SD) [2, 6]: 8.50 ± 1.32%
% Of Permeability (Mean ± SD) ([2]; 4 h after applying 200 µM to apical chamber, listed as Free FP): less than 9%
% Of Permeability (Mean ± SD) ([2]; 4 h after applying 200 µM to apical chamber, listed as free drug): not more than 8.5%
required therapeutic concentration for pharmacologically-significant effect on γ-secretase activity (γ-secretase): 150–250 µM
biological half-life [4]: 4 h
time to full excretion from the body [4]: ≤ 24 h

CC(C(=O)NCCCC[C@H](NC(=O)C(C)c1ccc(-c2ccccc2)c(F)c1)C(=O)N[C@@H](Cc1ccccc1)C(=O)O)c1ccc(-c2ccccc2)c(F)c1 (stereo partly drawn) [G0K-FP, Generation 0 lysine dendron-2Flurbiprofen]
% Of Permeability (Mean ± SD) [2, 5]: 5.3% and 5.31 ± 2.73%
% Of Permeability (Mean ± SD) [2, 6]: 12.5% and 12.48 ± 3.42%
